In patent US4052403A, “2-Hydroxyimino-1,2,3,4,6,7-hexahydro-11bH-benzo [a] quinolisine derivatives” (EGYT Gyogyszervegyeszeti Gyar, priority 1975, dated 1977):
Where “and” joins values, the source holds several entries; their conditions need not be identical. Equal values may be shown once. Entries after “also recorded” stand apart in the source; their conditions may differ.

Assays:
[1] = system: amphetamine-provoked hypermotility; test: inhibition of amphetamine-provoked hypermotility (psychosedative effect); assay type: in vivo; conditions: mice, amphetamine 3 mg/kg s.c. simultaneously, control = 100%
Experimental: This conclusion was based upon experimentation with mice by measuring their inhibition ability exerted on amphetamine-provoked hypermotility. the animals so tested were treated subcutaneously with 3 mg/kg of amphetamine (α-methyl-phenethylamine)while simultaneously administering the novel compound of formula (I) herein. A control test was run in which no psychosedative agent was used. The extent of hypermotility observed in the control group treated only with 3 mg/kg of amphetamine was regarded as 100%, and the percentage of inhibition observed in the test groups was related to this value.

[2] = acute toxicity, subcutaneous administration; conditions: mouse, in vivo, sc, mice
Experimental: The acute toxicities of the new compounds having the general formula (I) were measured on mice, under subcutaneous administration.

waking cats = test: behavioural effects in waking cats, compared with scopolamine; assay type: in vivo; conditions: for akinesia / standing position / behavioural effects in cats (first effects) / paralysis: s.c. 100 mg/kg isomer "b", 150 mg/kg scopolamine; for paralysis: 30 minutes after administration
Experimental: Accordingly, the effects of this "b" iosmer were compared directly with scopolamine by the use of a subcutaneous dosage of 100 mg/kg of the former and 150 mg/kg of the latter.

waking dogs = test: behavioural effects in waking dogs, compared with scopolamine; assay type: in vivo
[3] = system: analgesic effect of morphine; test: potentiation of the analgesic effect of morphine; conditions: in vivo
[4] = system: narcosis provoked by hexobarbital; test: potentiation of the narcosis provoked by hexobarbital; conditions: in vivo
[5] = anticholinergic / atropine-like activity; conditions: in vivo
[6] = well-known, cited from earlier work

CCOc1cc2c(cc1OCC)C1CC(=NO)C3CCCCC3N1CC2 (stereo not shown) [2-Hydroxyimino-3,4-cyclohexano-9,10-diethoxy-1,2,3,4,6,7,-hexahydro-11bH-benzo[a]quinolisine]
Inhibition (of amphetamine-provoked hypermotility) ([1]; 100 mg/kg s.c.): 85%
LD50 [2]: > 300 mg/kg

COc1cc2c(cc1OC)C1CC(=NO)C3CCCCC3N1CC2 (stereo not shown) [2-Hydroxyimino-3,4-cyclohexano-9,10-dimethoxy-1,2,3,4,6,7-he] [2-Hydroxyimino-3,4-cyclohexano-9,10-dimethoxy-1,2,3,4,6,7-hexahydro-11bH-benzo[a]quinolisine]
Inhibition (of amphetamine-provoked hypermotility) ([1]; 20 mg/kg s.c.): 66%
Inhibition (of amphetamine-provoked hypermotility) ([1]; 100 mg/kg s.c.): 33%
akinesia / standing position (waking cats; cats): more complete akinesia than scopolamine; also recorded: could not be brought to a standing position, their limbs immediately sliding apart although the carriage of their heads remained stationary
behavioural effects in cats (first effects) (waking cats; cats): restlessness coupled with hallucinations of the same type and degree
paralysis (waking cats; cats): all animals were paralyzed
response to capsaicine dropped into the eyes (waking cats; cats, s.c., capsaicine into eyes): long-lasting blepharospasm and mewing
response to painful stimuli (waking cats; cats, s.c., painful stimuli): strong mewing response
symptoms in waking cats compared with scopolamine (waking cats; waking cats): symptons similar to those os scopolamine
symptoms in waking dogs compared with scopolamine (waking dogs): symptons similar to those os scopolamine
awakening upon smell, slight noise and tactile stimuli (waking dogs; 10 mg/kg s.c.): not a narcotic effect, for the dogs were awakened readily upon smell stimuli related to food or slight noice and tactile stimuli
behavior after awakening (waking dogs; 10 mg/kg s.c.): normal behavior after awakening
behavioural effects in waking dogs (waking dogs; 10 mg/kg s.c.): remarkable quietness and the animals fell asleep
potentiation of the analgesic effect of morphine [3]: did not potentiate the analgesic effect of morphine
potentiation of the narcosis provoked by hexobarbital [4]: nor did it potentiate the narcosis provoked by hexobarbital

COc1cc2c(cc1OC)C1CC(=NO)C3CCCC3N1CC2 (stereo not shown) [2-Hydroxyimino-3,4-cyclopentano-9,10-dimethoxy-1,2,3,4,6,7-h] [2-Hydroxyimino-3,4-cyclopentano-9,10-dimethoxy-1,2,3,4,6,7-hexahydro-11bH-benzo[a]quinolisine]
Inhibition (of amphetamine-provoked hypermotility) ([1]; 100 mg/kg s.c.): 40% and 61%

COc1cc2c(cc1OC)C1CC(=NO)C3CCCC3N1CC2 (stereo not shown) [2-Hydroxyimino-3,4-cyclopentano-9,10-dimethoxy-1,2,3,4,6,7-hexahydro-11bH-benzo[a]quinolisine]
LD50 [2]: > 500 mg/kg

CN1[C@@H]2C[C@@H](OC(=O)[C@H](CO)c3ccccc3)C[C@H]1[C@@H]1O[C@@H]12 [scopolamine]
akinesia / standing position (waking cats; cats): remained in a standing position
behavioural effects in cats (first effects) (waking cats; cats): restlessness coupled with hallucinations of the same type and degree
paralysis (waking cats; cats): all animals were paralyzed
anticholinerg activity [5]: did not exert anticholinerg activity
atropine-like effect [5]: marked atropine-like effect
therapeutic psychosedative effects ([6]; small dosages): therapeutic psychosedative effects
side effects [6]: strong atropine-like parasympatholytic side effects
